This note sets out measurements from US20230391772A1, “METHODS AND COMPOSITIONS FOR TARGETED PROTEIN DEGRADATION” (Ranok Therapeutics (Hangzhou) Co. Ltd., priority 2020, published 2023).

The structures appear in SMILES notation. Some results are limits rather than exact numbers.

The target of test [1] is T1, HSP90a protein (Homo sapiens, UniProt P07900).
T1 construct: purchased BPS Bioscience 50298
The test can be described thus: HSP90α-binding fluorescent polarization (FP) assay, BODIPY-labeled RNK04010 probe. As to conditions: FP competition with RNK04010 (BODIPY-labeled), 5 nM, 300 min at 25° C. The essentials: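 Displacement of a 5 nM fluorescent HSP90 ligand from the N-terminal HSP90a domain by FP. Incubation ran at 25° C: 120 min for the FITC-geldanamycin tracer, 300 min for the BODIPY-conjugated triazolone RNK04010.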

Test [2] relates to MIA PaCa-2 human pancreatic carcinoma. The test can be described thus: MIA PaCa-2 CCK-8 proliferation assay. It counts as cell-based. To be noted: Homo sapiens, MIA PaCa-2, 72 h, MIA PaCa-2 cells. The essentials:
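Compounds were tested as a 3-fold series from 20 μM down to 1.02 nM in CCK-8 absorbance assays. The lines used were NCI-H23 and NCI-H358, each with 1 KRAS(G12C) copy, and MIA PaCa-2 with 2 copies. Inhibition was derived relative to DMSO controls, with a no-cell blank subtracted.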
In general terms: Formazan colour is commonly taken as a measure of viable cells.

In test [3] the target is T2, KRAS(G12C) (Homo sapiens, UniProt P01116, G12C). The test can be described thus: KRAS(G12C)/SOS1 homogeneous time-resolved fluorescence (HTRF) assay. Further details: purchased Cisbio 63ADK000CB16PEG. As to conditions: absence of GTP, 4° C. for 3 hr, read-out: KRAS (G12C) binding. The essentials:
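HTRF kit measuring compound-induced block of KRAS(G12C)-SOS1 interaction without GTP. Compounds tested as 3-fold serial dilutions down to 1.02 nM, incubated with reaction components 3 h at 4 °C in sealed plates before fluorescence read.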

The target in test [4] is T2, KRAS(G12C). The test can be described thus: KRAS(G12C) Western blot protein degradation assay in LU65A cells. As to conditions: 6 hr. Further details: LU65A human lung cancer cell line, which expresses KRAS(G12C); host or cells: LU65A. It counts as cell-based. The essentials:
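Cells treated with compound at various concentrations at 37 °C for 48 hr (MIA PaCa-2) or 6 hr (LU65A), then lysed in RIPA. Protein-normalized lysates immunoblotted for KRAS with β-actin, fluorescence quantified; DC50 is the concentration giving 50% of maximal KRAS degradation.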

T2 sequence (P01116 1-188 isoform P01116-2 G12C): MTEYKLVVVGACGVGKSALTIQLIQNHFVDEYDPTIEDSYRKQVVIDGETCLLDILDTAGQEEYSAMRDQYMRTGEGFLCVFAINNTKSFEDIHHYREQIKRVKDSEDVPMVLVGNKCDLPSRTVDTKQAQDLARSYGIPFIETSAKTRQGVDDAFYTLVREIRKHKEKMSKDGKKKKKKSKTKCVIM

The term EC50 denotes the concentration needed to bring the measured effect to its halfway point. High values mean weaker potency, low ones greater potency. For orientation: DC50 means the concentration at which degradation of the target reaches its halfway point. A high value points to degradation only at high concentration. Consider `C=CC(=O)N1CCN(c2nc(OC[C@@H]3C[C@H](C(=O)N4CC5(CCN(Cc6ccc(-n7c(O)nnc7-c7cc(C(C)C)c(O)cc7O)cc6)CC5)C4)CN3C)nc3c2CCN(c2cccc4cccc(Cl)c24)C3)C[C@@H]1CC#N` [Compound 230, 2-[(2S)-4-[7-(8-chloronaphthalen-1-yl)-2-{[(2S,4S)-4-[7-({4-[3-(2,4-dihydroxy-5-isopropylphenyl)-5-hydroxy-1,2,4-triazol-4-yl]phenyl}methyl)-2,7-diazaspiro[3.5]nonane-2-carbonyl]-1-methylpyrrolidin-2-yl]methoxy}-5H,6H,8H-pyrido[3,4-d]pyrimidin-4-yl]-1-(prop-2-enoyl)piperazin-2-yl]acetonitrile], for which the IC50 in test [1] and in test [3] was under 100 nM throughout. The EC50 in test [2] lay within 100 to 1000 nM. This compound gave a DC50 in test [4] of over 1000 nM.
Regarding `C=CC(=O)N1CCN(c2nc(OCC3CN(Cc4ccc(-n5c(O)nnc5-c5cc(C(C)C)c(O)cc5O)cc4)C3)nc3c2CCN(c2cccc4cccc(Cl)c24)C3)C[C@@H]1CC#N` [Compound 231, (S)-2-(1-acryloyl-4-(7-(8-chloronaphthalen-1-yl)-2-((1-(4-(3-(2,4-dihydroxy-5-isopropylphenyl)-5-hydroxy-4H-1,2,4-triazol-4-yl)benzyl)azetidin-3-yl)methoxy)-5,6,7,8-tetrahydropyrido[3,4-d]pyrimidin-4-yl)piperazin-2-yl)acetonitrile], the IC50 is under 100 nM in test [1] and 100 to 1000 nM in test [3]. The same compound yielded a concentration giving a half-maximal response (EC50) in test [2] of over 1000 nM. In test [4], this compound gave a DC50 of over 1000 nM.
Consider `C=CC(=O)N1CCN(c2nc(OCC3CN(Cc4ccc(-n5c(O)nnc5-c5cc(C)c(O)cc5O)cc4)C3)nc3c2CCN(c2cccc4cccc(Cl)c24)C3)C[C@@H]1CC#N` [Compound 232, (S)-2-(1-acryloyl-4-(7-(8-chloronaphthalen-1-yl)-2-((1-(4-(3-(2,4-dihydroxy-5-methylphenyl)-5-hydroxy-4H-1,2,4-triazol-4-yl)benzyl)azetidin-3-yl)methoxy)-5,6,7,8-tetrahydropyrido[3,4-d]pyrimidin-4-yl)piperazin-2-yl)acetonitrile], for which the IC50 in test [1] and in test [3] was under 100 nM in each case. Further, the EC50 in test [2] was over 1000 nM. The DC50 in test [4] is over 1000 nM.
Regarding `C=CC(=O)N1CCN(c2nc(OC[C@@H]3C[C@H](N4CCC(C(=O)N5CCN(Cc6ccc(-n7c(O)nnc7-c7cc(CC)c(O)cc7O)cc6)CC5)CC4)CN3C)nc3c2CCN(c2cccc4cccc(Cl)c24)C3)C[C@@H]1CC#N` [Compound 233, 2-[(2S)-4-[7-(8-chloronaphthalen-1-yl)-2-{[(2S,4S)-4-{4-[4-({4-[3-(5-ethyl-2,4-dihydroxyphenyl)-5-hydroxy-1,2,4-triazol-4-yl]phenyl}methyl)piperazine-1-carbonyl]piperidin-1-yl}-1-methylpyrrolidin-2-yl]methoxy}-5H,6H,8H-pyrido[3,4-d]pyrimidin-4-yl]-1-(prop-2-enoyl)piperazin-2-yl]acetonitrile], the IC50 in test [1] and in test [3] was under 100 nM each time. For the same compound, in test [2], the half-maximal effective concentration (EC50) is over 1000 nM. Also, the DC50 in test [4] is over 1000 nM.
Consider `C=CC(=O)N1CCN(c2nc(OC[C@@H]3C[C@H](N4CCC(C(=O)N5CCN(Cc6ccc(-n7c(C(=O)NC)nnc7-c7cc(C(C)C)c(O)cc7O)cc6)CC5)CC4)CN3C)nc3c2CCN(c2cccc4cccc(Cl)c24)C3)C[C@@H]1CC#N` [Compound 234, 4-{4-[(4-{1-[(3S,5S)-5-({[7-(8-chloronaphthalen-1-yl)-4-[(3S)-3-(cyanomethyl)-4-(prop-2-enoyl)piperazin-1-yl]-5H,6H,8H-pyrido[3,4-d]pyrimidin-2-yl]oxy}methyl)-1-methylpyrrolidin-3-yl]piperidine-4-carbonyl}piperazin-1-yl)methyl]phenyl}-5-(2,4-dihydroxy-5-isopropylphenyl)-N-methyl-1,2,4-triazole-3-carboxamide], for which the IC50 in test [1] and in test [3] was under 100 nM in each case. This compound also gave an EC50 in test [2] of 100 to 1000 nM. For the same compound, in test [4], the 50% degradation concentration (DC50) is over 1000 nM.
As for `C=CC(=O)N1CCN(c2nc(OC[C@@H]3CC[C@H](CN4CCN(C(=O)C5CCN(Cc6ccc(-n7c(O)nnc7-c7cc(C)c(O)cc7O)cc6)CC5)CC4)N3C)nc3c2CCN(c2cccc4cccc(Cl)c24)C3)C[C@@H]1CC#N` [Compound 319, 2-[(2S)-4-[7-(8-chloronaphthalen-1-yl)-2-{[(2S,5R)-5-({4-[1-({4-[3-(2,4-dihydroxy-5-methylphenyl)-5-hydroxy-1,2,4-triazol-4-yl]phenyl}methyl)piperidine-4-carbonyl]piperazin-1-yl}methyl)-1-methylpyrrolidin-2-yl]methoxy}-5H,6H,8H-pyrido [3,4-d]pyrimidin-4-yl]-1-(prop-2-enoyl)piperazin-2-yl]acetonitrile], the IC50 in test [1] and in test [3] was under 100 nM each time. Further, the EC50 in test [2] lay in the range of 100 to 1000 nM. Also, in test [4], the 50% degradation concentration (DC50) lay in the range of 100 to 1000 nM.
As for `C=CC(=O)N1CCN(c2nc(OC[C@@H]3CC[C@H](CN4CCN(Cc5ccc(-n6c(O)nnc6-c6cc(C(C)C)c(O)cc6O)cc5)CC4)N3C)nc3c2CCN(c2cccc4cccc(Cl)c24)C3)C[C@@H]1CC#N` [Compound 326, 2-[(2S)-4-[7-(8-chloronaphthalen-1-yl)-2-{[(2S,5R)-5-{[4-({4-[3-(2,4-dihydroxy-5-isopropylphenyl)-5-hydroxy-1,2,4-triazol-4-yl]-phenyl}methyl)piperazin-1-yl]methyl}-1-methylpyrrolidin-2-yl]methoxy}-5H,6H,8H-pyrido[3,4-d]pyrimidin-4-yl]-1-(prop-2-enoyl)piperazin-2-yl]acetonitrile], the IC50 in test [1] and in test [3] was under 100 nM each time. In test [2], this compound gave an EC50 of 100 to 1000 nM. The compound further gave a DC50 in test [4] of 100 to 1000 nM.
In the case of `C=CC(=O)N1CCN(c2nc(OC[C@@H]3C[C@H](N4CCC5(CCN(Cc6ccc(-n7c(O)nnc7-c7cc(C(C)C)c(O)cc7O)cc6)CC5)CC4)CN3C)nc3c2CCN(c2cccc4cccc(Cl)c24)C3)C[C@@H]1CC#N` [Compound 334, 2-[(2S)-4-[7-(8-chloronaphthalen-1-yl)-2-{[(2S,4S)-4-[9-({4-[3-(2,4-dihydroxy-5-isopropylphenyl)-5-hydroxy-1,2,4-triazol-4-yl]phenyl}methyl)-3,9-diazaspiro[5.5]undecan-3-yl]-1-methylpyrrolidin-2-yl]methoxy}-5H,6H,8H-pyrido[3,4-d]pyrimidin-4-yl]-1-(prop-2-enoyl)piperazin-2-yl]acetonitrile], the IC50 in test [1] and in test [3] was under 100 nM throughout. Besides, the concentration for a half-maximal effect (EC50) in test [2] is under 100 nM. This compound came in with a DC50 in test [4] of 100 to 1000 nM.
Take `C=CC(=O)N1CCN(c2nc(OC[C@@H]3C[C@H](N4CCC(C(=O)N5CCN(Cc6ccc(-n7c(C(=O)NCC(F)(F)F)nnc7-c7cc(C)c(O)cc7O)cc6)CC5)CC4)CN3C)nc3c2CCN(c2cccc4cccc(Cl)c24)C3)C[C@@H]1CC#N` [Compound 336, 4-{4-[(4-{1-[(3S,5S)-5-({[7-(8-chloronaphthalen-1-yl)-4-[(3S)-3-(cyanomethyl)-4-(prop-2-enoyl)piperazin-1-yl]-5H,6H,8H-pyrido[3,4-d]pyrimidin-2-yl]oxy}methyl)-1-methylpyrrolidin-3-yl]piperidine-4-carbonyl}piperazin-1-yl)methyl]phenyl}-5-(2,4-dihydroxy-5-methylphenyl)-N-(2,2,2-trifluoroethyl)-1,2,4-triazole-3-carbox-amide]: the IC50 in test [1] and in test [3] was under 100 nM in each case. Further, the EC50 in test [2] was in the range of 100 to 1000 nM. Further, the DC50 in test [4] is over 1000 nM.
Take `C=CC(=O)N1CCN(c2nc(OC[C@@H]3C[C@H](C(=O)NCCc4ccc(CN5CCC(Cc6ccc(-n7c(C(=O)NCC(F)(F)F)nnc7-c7cc(C(C)C)c(O)cc7O)cc6)CC5)cc4)CN3C)nc3c2CCN(c2cccc4cccc(Cl)c24)C3)C[C@@H]1CC#N` [Compound 346, 4-{4-[(1-{[4-(2-{[(3S,5S)-5-({[7-(8-chloronaphthalen-1-yl)-4-[(3S)-3-(cyanomethyl)-4-(prop-2-enoyl)piperazin-1-yl]-5H,6H,8H-pyrido[3,4-d]pyrimidin-2-yl]oxy}methyl)-1-methylpyrrolidin-3-yl]formamido}ethyl)phenyl]methyl}piperidin-4-yl)methyl]phenyl}-5-(2,4-dihydroxy-5-isopropylphenyl)-N-(2,2,2-trifluoroethyl)-1,2,4-triazole-3-carboxamide]: the IC50 in test [1] and in test [3] was under 100 nM each time. In addition, in test [2], the EC50 is 100 to 1000 nM. In addition, the DC50 in test [4] lay within 100 to 1000 nM.
